Here are results for 12 compounds from PubChem BioAssay (NCI).

Some test systems named below: M14 melanoma; HL-60(TB) leukemia; RXF 393 renal; OVCAR-8 ovarian; KM12 colon; U251 CNS; HCT-116 colon; NCI-H226 lung; SF-539 CNS; NCI/ADR-RES ovarian; A549 NSCLC; IGROV1 ovarian; SW-620 colon; SNB-75 CNS; UACC-62 melanoma; SK-MEL-2 melanoma; T-47D breast; PC-3 prostate.
Holding throughout (assay): NCI tumour cell line growth inhibition, 48 h

Several values for one entry are separate records, joined by “and”; a condition that tells them apart may be missing. Identical values can stand only once.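 Method: 48-hour compound exposure of cells in 96-well plates, five concentrations, linear interpolation of endpoints. Here, GI50 denotes the concentration required for 50% inhibition of growth. TGI is the concentration that stops growth completely.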

`O=S(=O)(O)c1cc(N=Nc2cc(S(=O)(=O)O)c3ccccc3c2O)ccc1/C=C/c1ccc(N=Nc2cc(S(=O)(=O)O)c3ccccc3c2O)cc1S(=O)(=O)O`: the TGI in the test on M14 melanoma was above 355 µM; with HL-60(TB) leukemia it was 41.2 µM and 104 µM; in the test with RXF 393 renal, above 1000 µM; in the test with OVCAR-8 ovarian, above 1000 µM; in the test with KM12 colon, above 365 µM; in the test with U251 CNS, above 1000 µM. Also, the TGI in the test on HCT-116 colon is above 433 µM; with NCI-H226 lung it was 594 µM; with SF-539 CNS it was above 667 µM; in the test on NCI/ADR-RES ovarian, above 1000 µM; with A549 NSCLC, above 1000 µM; in the test on IGROV1 ovarian, above 873 µM. Moreover, the TGI was above 1000 µM in the test on SW-620 colon; above 736 µM with SNB-75 CNS; above 628 µM with UACC-62 melanoma; above 620 µM in the test with SK-MEL-2 melanoma; above 1000 µM in the test with T-47D breast; 986 µM in the test with PC-3 prostate. For the same compound, the GI50 in the test on HL-60(TB) leukemia was 43.4 µM.
As for `CS(=O)(=O)N1CC(CCl)c2ccc(NCCN)cc21` (centres undefined), the TGI in the test on M14 melanoma, in the test on HL-60(TB) leukemia, with RXF 393 renal, in the test with OVCAR-8 ovarian, in the test on KM12 colon and with U251 CNS was above 100 µM each time. The TGI with HCT-116 colon was above 100 µM; in the test on NCI-H226 lung it was above 100 µM; with SF-539 CNS, above 100 µM; in the test on NCI/ADR-RES ovarian, above 100 µM; in the test on A549 NSCLC, above 100 µM; in the test with IGROV1 ovarian it was 49.8 µM. Moreover, the TGI in the test with SW-620 colon is above 100 µM; in the test on SNB-75 CNS, 40.1 µM; in the test with SK-MEL-2 melanoma it was above 100 µM; in the test on T-47D breast it was above 100 µM; with PC-3 prostate, above 100 µM.
On to `CCOC(=O)NC(Nc1ccc(F)c(F)c1)(C(=O)OCC)C(F)(F)F` (centres undefined), for which the TGI in the test on M14 melanoma, in the test on HL-60(TB) leukemia, in the test on RXF 393 renal, in the test with OVCAR-8 ovarian, in the test on KM12 colon and with U251 CNS was above 100 µM in each case. The TGI in the test with HCT-116 colon, in the test with NCI-H226 lung, in the test on SF-539 CNS, in the test on NCI/ADR-RES ovarian, with A549 NSCLC and in the test on IGROV1 ovarian was above 100 µM in each case. Also, the TGI with SW-620 colon was above 100 µM; with SNB-75 CNS it was above 100 µM; in the test with UACC-62 melanoma, above 100 µM; with SK-MEL-2 melanoma, above 86.5 µM; in the test with T-47D breast it was above 100 µM; with PC-3 prostate, above 100 µM.
Take `CCNc1nc(N)c(C(=O)c2cccs2)s1`: the TGI in the test with M14 melanoma was above 100 µM; with HL-60(TB) leukemia, 21.9 µM; with RXF 393 renal, 20 µM; in the test with OVCAR-8 ovarian it was above 100 µM; in the test on KM12 colon, 46.7 µM; in the test on U251 CNS it was above 100 µM. The TGI in the test on HCT-116 colon was above 100 µM; with NCI-H226 lung it was 76 µM; in the test on SF-539 CNS it was 46.4 µM; in the test with NCI/ADR-RES ovarian, above 100 µM; in the test on A549 NSCLC it was above 100 µM; in the test on IGROV1 ovarian, 50.3 µM. The TGI in the test with SW-620 colon is above 100 µM; in the test with SNB-75 CNS, 36.6 µM; in the test on UACC-62 melanoma it was 51.8 µM; with SK-MEL-2 melanoma, 45 µM; with T-47D breast, 84.3 µM; with PC-3 prostate it was above 100 µM.
As for `O=c1oc2ccccc2cc1-c1csc(Nc2cc(Cl)cc(Cl)c2)n1`, the TGI in the test with M14 melanoma was above 72.2 µM; with HL-60(TB) leukemia, above 100 µM; in the test on RXF 393 renal it was 14.6 µM; with OVCAR-8 ovarian, above 52 µM; with KM12 colon, above 58.6 µM; in the test with U251 CNS it was 11.7 µM. For the same compound, the TGI in the test on HCT-116 colon was above 38.3 µM; in the test on NCI-H226 lung it was above 56.1 µM; with SF-539 CNS, 5.16 µM; with NCI/ADR-RES ovarian, above 83.7 µM; in the test on A549 NSCLC it was 16.9 µM; in the test with IGROV1 ovarian, 36 µM. Also, the TGI in the test on SW-620 colon is 50.9 µM; in the test with SNB-75 CNS it was 11.8 µM; in the test on UACC-62 melanoma, above 100 µM; with SK-MEL-2 melanoma, above 100 µM; in the test on T-47D breast, above 100 µM; in the test on PC-3 prostate, above 100 µM.
For `CN(CCCCN1CCCC1)CCCCN(C)C(=O)Cc1ccc(Cl)c(Cl)c1`, the TGI in the test with M14 melanoma worked out at 35.7 µM; in the test with HL-60(TB) leukemia, 36.1 µM; in the test on RXF 393 renal, 25.9 µM; in the test with OVCAR-8 ovarian it was 64.9 µM; with KM12 colon it was 26.1 µM; in the test with U251 CNS it was 27.8 µM. The TGI in the test on HCT-116 colon was 29.3 µM; with NCI-H226 lung, 41.8 µM; with SF-539 CNS it was 23.3 µM; in the test with NCI/ADR-RES ovarian, above 100 µM; in the test with A549 NSCLC, 31.2 µM; in the test on IGROV1 ovarian it was 37 µM. Further, the TGI in the test on SW-620 colon stood at 38.4 µM; in the test on SNB-75 CNS, 32.8 µM; in the test on UACC-62 melanoma, 12.3 µM; in the test on SK-MEL-2 melanoma, 19.7 µM; with T-47D breast it was 40.7 µM; in the test on PC-3 prostate it was 36.4 µM.
On to `COCOc1cc(OC)c(Br)cc1C/C(=N/O)C(=O)OC`, for which the TGI in the test with M14 melanoma, in the test on HL-60(TB) leukemia, in the test on RXF 393 renal, in the test with OVCAR-8 ovarian, in the test with KM12 colon and in the test with U251 CNS was above 100 µM in each case. The TGI in the test on HCT-116 colon, in the test on NCI-H226 lung, in the test with SF-539 CNS, with NCI/ADR-RES ovarian, in the test with A549 NSCLC and in the test on IGROV1 ovarian was above 100 µM throughout. Moreover, the TGI with SW-620 colon is above 100 µM; with SNB-75 CNS, 59.7 µM; with UACC-62 melanoma it was above 100 µM; in the test with SK-MEL-2 melanoma, above 100 µM; with T-47D breast, 70.3 µM; in the test with PC-3 prostate, above 100 µM.
Regarding `CN(C)Cc1cc(N=Nc2ccccc2Cl)ccc1O`, the TGI in the test with M14 melanoma is 44.5 µM; in the test on HL-60(TB) leukemia, 29.3 µM; in the test on RXF 393 renal it was 60.8 µM; in the test with OVCAR-8 ovarian, 25.3 µM; in the test on KM12 colon, 75.5 µM; in the test on U251 CNS, 59.3 µM. The TGI is above 100 µM in the test with HCT-116 colon; 40 µM in the test on NCI-H226 lung; 59.5 µM in the test with SF-539 CNS; 74.7 µM in the test on NCI/ADR-RES ovarian; 25.3 µM in the test on A549 NSCLC; above 100 µM with IGROV1 ovarian. In addition, the TGI in the test with SW-620 colon is 28 µM; in the test on SNB-75 CNS, 55.8 µM; in the test with UACC-62 melanoma, 40.9 µM; with T-47D breast it was 71.5 µM; with PC-3 prostate, above 100 µM.
Regarding `CN(C)Cc1cc(C(=O)/C=C/c2ccc(Br)cc2)cc(CN(C)C)c1O`, the TGI with M14 melanoma is 22.1 µM; in the test on HL-60(TB) leukemia, 20.5 µM; in the test with RXF 393 renal it was 17.1 µM; with OVCAR-8 ovarian, 20.8 µM; in the test with KM12 colon, 5.88 µM; in the test with U251 CNS, 33.5 µM. Moreover, the TGI in the test on HCT-116 colon was 19.9 µM; in the test on NCI-H226 lung, 35.9 µM; in the test on SF-539 CNS, 31.9 µM; in the test with NCI/ADR-RES ovarian, above 100 µM; with A549 NSCLC it was 26.2 µM; in the test with IGROV1 ovarian, 26.3 µM. The TGI in the test on SW-620 colon amounted to 16 µM; with SNB-75 CNS it was 35.3 µM; in the test on T-47D breast, 37.9 µM; with PC-3 prostate, 10.2 µM.
For `c1cc2[nH]snc2c2cncc12`, the TGI in the test with HL-60(TB) leukemia, with RXF 393 renal, in the test on OVCAR-8 ovarian, with KM12 colon, in the test with HCT-116 colon and in the test on NCI-H226 lung was above 100 µM each time. Moreover, the TGI in the test on SF-539 CNS, with NCI/ADR-RES ovarian, in the test with A549 NSCLC, with IGROV1 ovarian, in the test with SW-620 colon and in the test with SNB-75 CNS was above 100 µM in each case. Besides, the TGI with UACC-62 melanoma, with SK-MEL-2 melanoma, in the test with T-47D breast and in the test on PC-3 prostate was above 100 µM throughout.
In the case of `CN(C)/N=C1\C=C2CC[C@H](O[Si](C)(C)C(C)(C)C)[C@@]2(C)CC1`, the TGI in the test on M14 melanoma was determined as 33 µM; with HL-60(TB) leukemia, 26.5 µM; with RXF 393 renal it was 28 µM; with OVCAR-8 ovarian, 33.3 µM; in the test with KM12 colon, 30.9 µM; with U251 CNS it was 29.7 µM. Moreover, the TGI is 35 µM with NCI-H226 lung; 42.4 µM with SF-539 CNS; 34.5 µM in the test with NCI/ADR-RES ovarian; 34.8 µM in the test on A549 NSCLC; 41 µM with IGROV1 ovarian; 31.9 µM in the test on SW-620 colon. For the same compound, the TGI was determined as 30.9 µM with SNB-75 CNS; 30.4 µM in the test on UACC-62 melanoma; 30.4 µM with SK-MEL-2 melanoma; 29.6 µM with T-47D breast; 28.1 µM in the test on PC-3 prostate.
Turning to `CCN(CC)CCOc1ccc(N2Cc3ccccc3C2=O)cc1`, the TGI with M14 melanoma, with HL-60(TB) leukemia, in the test with RXF 393 renal, with OVCAR-8 ovarian, with U251 CNS and in the test on HCT-116 colon was above 10 µM each time. Further, the TGI with NCI-H226 lung, with SF-539 CNS, in the test with NCI/ADR-RES ovarian, in the test on A549 NSCLC, in the test on IGROV1 ovarian and with SW-620 colon was above 10 µM each time. Moreover, the TGI in the test with SNB-75 CNS, in the test with UACC-62 melanoma, with SK-MEL-2 melanoma, in the test with T-47D breast and in the test with PC-3 prostate was above 10 µM throughout.
